“Also recorded” adds a separate entry of the source.
Assays:
[1] = Stability of samples spread flat in the air under lighting, heating and high humidity, purity by HPLC; type: physicochemical
Description: Crystal form II prepared in Example 1 and the amorphous sample prepared in Example 2 were spread flat in the air to test their stability in conditions of lighting (4500 Lux), heating (40° C., 60′C.), and high humidity (RH 75%, RH 90%).

[2] = Special stability study: grinding, heating and pressing of the crystal form; type: physicochemical
From the text: Crystal form II of the compound of formula (I) prepared according to the method of Example 1 was ground, heated and pressed.

Row | purity as detected by HPLC ([1]; 40° C., Day 0) | purity as detected by HPLC ([1]; 40° C., Day 5) | purity as detected by HPLC ([1]; 40° C., Day 10) | purity as detected by HPLC ([1]; 60° C., Day 0) | purity as detected by HPLC ([1]; 60° C., Day 5) | purity as detected by HPLC ([1]; 60° C., Day 10) | purity as detected by HPLC ([1]; Lighting (4500 Lux), Day 0) | purity as detected by HPLC ([1]; Lighting (4500 Lux), Day 5) | purity as detected by HPLC ([1]; Lighting (4500 Lux), Day 10) | purity as detected by HPLC ([1]; RH 75%, Day 0) | purity as detected by HPLC ([1]; RH 75%, Day 5) | purity as detected by HPLC ([1]; RH 75%, Day 10) | purity as detected by HPLC ([1]; RH 90%, Day 0) | purity as detected by HPLC ([1]; RH 90%, Day 5) | purity as detected by HPLC ([1]; RH 90%, Day 10) | effect of high humidity on stability [1] | SMILES | other results
1 | 98.33% | 97.65% | 96.61% | 98.33% | 94.53% | 92.12% | 98.33% | 98.04% | 97.51% | 98.33% | 98.32% | 98.16% | 98.33% | 99.14% | 99.12% | does not have much effect | COc1nsc(NC(=O)N2C[C@H]3C[C@H](N(C)c4ncnc5[nH]ccc45)C[C@H]3C2)n1 [Amorphous Form, (3aR,5s,6aS)—N-(3-methoxyl-1,2,4-thiadiazole-5-yl)-5-(methyl(7H-pyrrolo[2,3-d]pyrimidine-4-yl)amino)hexahydrocyclopenta[c]pyrrole-2(1H)-formamide bisulfate] | –
2 | 99.30% | 99.30% | 99.28% | 99.30% | 99.20% | 99.15% | 99.30% | 99.29% | 99.30% | 99.30% | 99.31% | 99.28% | 99.30% | 99.31% | 99.31% | does not have much effect | COc1nsc(NC(=O)N2C[C@H]3C[C@H](N(C)c4ncnc5[nH]ccc45)C[C@H]3C2)n1 [Crystal form II, (3aR,5s,6aS)—N-(3-methoxyl-1,2,4-thiadiazole-5-yl)-5-(methyl(7H-pyrrolo[2,3-d]pyrimidine-4-yl)amino)hexahydrocyclopenta[c]pyrrole-2(1H)-formamide bisulfate] | stability compared with the amorphous sample ([1]; conditions of high temperature and high humidity): significantly better than that of the amorphous sample; stability compared with the amorphous sample ([1]; conditions of lighting and high temperature): significantly better than that of the amorphous sample; Crystal form after treatment ([2]; Grinding treatment for 10 minutes in a mortar under nitrogen atmosphere): form II; Crystal form after treatment ([2]; Heating treatment at 80° C. for 3 hours): form II; Crystal form after treatment ([2]; Pressing treatment, pressed to a slice): form II; stability of the crystal form ([2]; ground, heated and pressed): good stability; also recorded: stable

Source: patent US10023577B2, “Crystalline form of JAK kinase inhibitor bisulfate and a preparation method thereof” (Jiangsu Hengrui Medicine Co., Ltd., priority 2014, dated 2018)
